Reference: ChEMBL document CHEMBL4699440, “Comprehensive review on the anti-bacterial activity of 1,2,3-triazole hybrids” (Eur J Med Chem, 2019)
Converted amounts (≈) assume the structure as drawn.

Assays:
Staphylococcus aureus [1] = test: Antibacterial activity against inducibly-resistant Staphylococcus aureus; format: functional
Staphylococcus aureus [2] = test: Antibacterial activity against constitutively-resistant Staphylococcus aureus; format: functional
Staphylococcus aureus [3] = test: Antibacterial activity against methicillin-resistant Staphylococcus aureus; format: functional
Staphylococcus aureus [4] = test: Antibacterial activity against Staphylococcus aureus RCMB-010010 assessed as diameter of inhibition zone at 5 mg/ml by diffusion technique; format: functional; settings: read-out: DIZ
Escherichia coli [5] = test: Antibacterial activity against Escherichia coli RCMB-010052 assessed as diameter of inhibition zone at 5 mg/ml by diffusion technique; format: functional; settings: read-out: DIZ
Pseudomonas aeruginosa [6] = test: Antibacterial activity against Pseudomonas aeruginosa RCMB-010043 assessed as diameter of inhibition zone at 5 mg/ml by diffusion technique; format: functional; settings: read-out: DIZ
[7] = system: Syncephalastrum racemosum; test: Antifungal activity against Syncephalastrum racemosum RCMB-05922 assessed as diameter of inhibition zone at 5 mg/ml by diffusion technique; format: functional; settings: read-out: DIZ
Geotrichum candidum = test: Antifungal activity against Geotrichum candidum RCMB-05097 assessed as diameter of inhibition zone at 5 mg/ml by diffusion technique; format: functional; settings: read-out: DIZ
Aspergillus fumigatus = test: Antifungal activity against Aspergillus fumigatus RCMB-02568 assessed as diameter of inhibition zone at 5 mg/ml by diffusion technique; format: functional; settings: read-out: DIZ
Bacillus cereus = test: Antibacterial activity against Bacillus cereus RCMB-010067 assessed as diameter of inhibition zone at 5 mg/ml by diffusion technique; format: functional; settings: read-out: DIZ
Candida albicans = test: Antifungal activity against Candida albicans RCMB-05036 assessed as diameter of inhibition zone at 5 mg/ml by diffusion technique; format: functional; settings: read-out: DIZ
Klebsiella pneumoniae [8] = test: Antibacterial activity against Klebsiella pneumoniae ATCC 700603 incubated overnight by broth dilution technique; format: functional, organism-based
Escherichia coli [9] = test: Antibacterial activity against Escherichia coli ATCC 25922 incubated overnight by broth dilution technique; format: functional, organism-based
Enterococcus faecalis = test: Antibacterial activity against Enterococcus faecalis MTCC 439 incubated overnight by broth dilution technique; format: functional, organism-based
Streptococcus pneumoniae = test: Antibacterial activity against Streptococcus pneumoniae MTCC 655 incubated overnight by broth dilution technique; format: functional, organism-based
Pseudomonas aeruginosa [10] = test: Antibacterial activity against Pseudomonas aeruginosa MTCC 2453 incubated overnight by broth dilution technique; format: functional, organism-based
Salmonella enterica = test: Antibacterial activity against Salmonella enterica MTCC 3224 incubated overnight by broth dilution technique; format: functional, organism-based
Pseudomonas aeruginosa [11] = test: Antibacterial activity against Pseudomonas aeruginosa assessed as inhibition zone at 1 mg/ml measured after overnight incubation by disc diffusion method; format: functional; settings: read-out: IZ
Staphylococcus aureus [12] = test: Antibacterial activity against Staphylococcus aureus assessed as inhibition zone at 1 mg/ml measured after overnight incubation by disc diffusion method; format: functional; settings: read-out: IZ
Bacillus subtilis [13] = test: Antibacterial activity against Bacillus subtilis assessed as inhibition zone at 1 mg/ml measured after overnight incubation by disc diffusion method; format: functional; settings: read-out: IZ
Klebsiella pneumoniae [14] = test: Antibacterial activity against Klebsiella pneumoniae MTCC 618 incubated for 24 hrs by microdilution method; format: functional
Escherichia coli [15] = test: Antibacterial activity against Escherichia coli assessed as inhibition zone at 1 mg/ml measured after overnight incubation by disc diffusion method; format: functional; settings: read-out: IZ
Escherichia coli [16] = test: Antibacterial activity against Escherichia coli ATCC 25922 incubated for 24 hrs by broth dilution method; format: functional
Proteus vulgaris = test: Antibacterial activity against Proteus vulgaris ATCC […] incubated for 24 hrs by broth dilution method; format: functional
Staphylococcus aureus [17] = test: Antibacterial activity against Staphylococcus aureus ATCC 9144 incubated for 24 hrs by broth dilution method; format: functional
Bacillus spizizenii = test: Antibacterial activity against Bacillus subtilis ATCC 6633 incubated for 24 hrs by broth dilution method; format: functional
Bacillus subtilis [18] = test: Antibacterial activity against Bacillus subtilis NCIM-2162 incubated for 12 hrs; format: functional
Escherichia coli [19] = test: Antibacterial activity against Escherichia coli NCIM-2576 incubated for 8 hrs; format: functional
Pseudomonas fluorescens = test: Antibacterial activity against Pseudomonas fluorescence NCIM-2059 incubated for 8 hrs; format: functional
Staphylococcus aureus [20] = test: Antibacterial activity against Staphylococcus aureus NCIM-2602 incubated for 12 hrs; format: functional

Molecule: CO[C@@H]1[C@@H](O[C@@H]2O[C@H](C)[C@@H](O[C@H]3C[C@@](C)(O)[C@@H](OC(=O)CCCc4cn(C56CC7CC(CC(C7)C5)C6)nn4)[C@H](C)O3)[C@H](N(C)C)[C@H]2O)[C@H]2CC(O[Si](C)(C)C(C)(C)C)O[C@@H]1CC(=O)O[C@H](C)CC/C=C/C=C/[C@H](O[C@H]1CC[C@H](N(C)C)[C@@H](C)O1)[C@H](C)C2 (stereo partly specified)
- MIC (Staphylococcus aureus [1]): 8 µg/mL (≈ 6.44 µM)
- MIC (Staphylococcus aureus [2]): 8 µg/mL (≈ 6.44 µM)
- MIC (Staphylococcus aureus [3]): 8 µg/mL (≈ 6.44 µM)

Molecule: Cc1ccc(-n2nc(N)c(C(=O)NCCNC(=O)c3nn(-c4ccc(C)cc4)nc3N)n2)cc1
- zone of inhibition at 5000 µg/mL (Staphylococcus aureus [4]): 8.3 mm
- zone of inhibition at 5000 µg/mL (Escherichia coli [5]): 8.3 mm
- zone of inhibition at 5000 µg/mL (Pseudomonas aeruginosa [6]): 8.3 mm
- zone of inhibition at 5000 µg/mL [7]: 8.3 mm
- zone of inhibition at 5000 µg/mL (Geotrichum candidum): 8.3 mm
- zone of inhibition at 5000 µg/mL (Aspergillus fumigatus): 8.3 mm
- zone of inhibition at 5000 µg/mL (Bacillus cereus): 8.3 mm
- zone of inhibition at 5000 µg/mL (Candida albicans): 8.3 mm

Molecule: SPIRAMYCIN
- MIC (Staphylococcus aureus [1]): > 256 µg/mL
- MIC (Staphylococcus aureus [2]): > 256 µg/mL
- MIC (Staphylococcus aureus [3]): > 256 µg/mL

Molecule: CO[C@@H]1[C@@H](O[C@@H]2O[C@H](C)[C@@H](O[C@H]3C[C@@](C)(O)[C@@H](OC(=O)CCCc4cn(CSc5ccccc5)nn4)[C@H](C)O3)[C@H](N(C)C)[C@H]2O)[C@H]2CC(O[Si](C)(C)C(C)(C)C)O[C@@H]1CC(=O)O[C@H](C)CC/C=C/C=C/[C@H](O[C@H]1CC[C@H](N(C)C)[C@@H](C)O1)[C@H](C)C2 (stereo partly specified)
- MIC (Staphylococcus aureus [1]): 8 µg/mL (≈ 6.5 µM)
- MIC (Staphylococcus aureus [2]): 8 µg/mL (≈ 6.5 µM)
- MIC (Staphylococcus aureus [3]): 8 µg/mL (≈ 6.5 µM)

Molecule: C[C@@H]1[C@H](O)[C@@H](C)/C=C/C=C/C=C/C=C/C=C/C=C/C=C/[C@H](O[C@@H]2O[C@H](C)[C@@H](O)[C@H](N)[C@@H]2O)C[C@@H]2O[C@](O)(C[C@@H](O)C[C@@H](O)[C@H](O)CC[C@@H](O)C[C@@H](O)CC(=O)O[C@H]1C)C[C@H](O)[C@H]2C(=O)O [AMPHOTERICIN B]
- zone of inhibition at 5000 µg/mL [7]: 19.7 mm
- zone of inhibition at 5000 µg/mL (Geotrichum candidum): 19.7 mm
- zone of inhibition at 5000 µg/mL (Aspergillus fumigatus): 19.7 mm
- zone of inhibition at 5000 µg/mL (Candida albicans): 19.7 mm

Molecule: NS(=O)(=O)c1ccc(-n2cc(COc3cccc4cccnc34)nn2)cc1
- IC50 (Klebsiella pneumoniae [8]): 106 µg/mL (≈ 278 µM)
- IC50 (Escherichia coli [9]): 106 µg/mL (≈ 278 µM)
- IC50 (Enterococcus faecalis): 106 µg/mL (≈ 278 µM)
- IC50 (Streptococcus pneumoniae): 106 µg/mL (≈ 278 µM)
- IC50 (Pseudomonas aeruginosa [10]): 106 µg/mL (≈ 278 µM)
- IC50 (Salmonella enterica): 106 µg/mL (≈ 278 µM)

Molecule: CCn1cc(C(=O)O)c(=O)c2cc(F)c(N3CCNCC3)cc21 [NORFLOXACIN]
- zone of inhibition at 1000 µg/mL (Pseudomonas aeruginosa [11]): 2.5 mm
- zone of inhibition at 1000 µg/mL (Staphylococcus aureus [12]): 2.5 mm
- zone of inhibition at 1000 µg/mL (Bacillus subtilis [13]): 2.5 mm
- MIC (Klebsiella pneumoniae [14]): 9.38 µg/mL (≈ 29.4 µM)
- zone of inhibition at 1000 µg/mL (Escherichia coli [15]): 2.5 mm

Molecule: c1ccc(-n2cc(COc3cccc4cccnc34)nn2)cc1
- IC50 (Klebsiella pneumoniae [8]): 106 µg/mL (≈ 350 µM)
- IC50 (Escherichia coli [9]): 106 µg/mL (≈ 350 µM)
- IC50 (Enterococcus faecalis): 106 µg/mL (≈ 350 µM)
- IC50 (Streptococcus pneumoniae): 106 µg/mL (≈ 350 µM)
- IC50 (Pseudomonas aeruginosa [10]): 106 µg/mL (≈ 350 µM)
- IC50 (Salmonella enterica): 106 µg/mL (≈ 350 µM)

Molecule: O=C(/C=C1\C(=O)N(Cc2cn(Cc3ccccc3)nn2)c2ccccc21)c1cc(Cl)cc(Cl)c1OCc1cn(Cc2ccccc2)nn1
- MIC (Escherichia coli [16]): 1.56 µg/mL (≈ 2.31 µM)
- MIC (Proteus vulgaris): 1.56 µg/mL (≈ 2.31 µM)
- MIC (Staphylococcus aureus [17]): 1.56 µg/mL (≈ 2.31 µM)
- MIC (Bacillus spizizenii): 1.56 µg/mL (≈ 2.31 µM)

Molecule: Oc1cccc2cccnc12 [OXYQUINOLINE]
- IC50 (Klebsiella pneumoniae [8]): 15.6 µg/mL (≈ 108 µM)
- IC50 (Escherichia coli [9]): 15.6 µg/mL (≈ 108 µM)
- IC50 (Enterococcus faecalis): 15.6 µg/mL (≈ 108 µM)
- IC50 (Streptococcus pneumoniae): 15.6 µg/mL (≈ 108 µM)
- IC50 (Pseudomonas aeruginosa [10]): 15.6 µg/mL (≈ 108 µM)
- IC50 (Salmonella enterica): 15.6 µg/mL (≈ 108 µM)

Molecule: COc1ccc(-c2cnnn2Cc2csc(-c3ccc(Br)cc3)n2)cc1
- MIC90 (Bacillus subtilis [18]): 4.5 µg/mL (≈ 10.5 µM)
- MIC90 (Escherichia coli [19]): 4.5 µg/mL (≈ 10.5 µM)
- MIC90 (Pseudomonas fluorescens): 4.5 µg/mL (≈ 10.5 µM)
- MIC90 (Staphylococcus aureus [20]): 4.5 µg/mL (≈ 10.5 µM)

Molecule: GENTAMICIN
- MIC (Escherichia coli [16]): 1.56 µg/mL
- MIC (Proteus vulgaris): 1.56 µg/mL
- MIC (Staphylococcus aureus [17]): 1.56 µg/mL
- MIC (Bacillus spizizenii): 1.56 µg/mL
